Data set [1] has as its target yeast iso-1 cytochrome c WT* (pseudo-wild-type), ferric (Saccharomyces cerevisiae, UniProt P00044, C108S/K78A). Description: equilibrium titration, Soret absorbance at […] and […] nm, one-site fit. The class given is binding.
The target of data set [2] is yeast iso-1 cytochrome c WT* (pseudo-wild-type), ferric (Saccharomyces cerevisiae, UniProt P00044, C108S/K78A/K79A/K85G/M86K). Described as above. The class given is binding.
A further data set addresses Lys80 (UniProt position 86, IPGTGKAFGGL). Description: UV-vis. The note with it: ferric protein; Lys80/His18-ligated haem converting to H2O/His-ligated haem; cited from earlier work.

What is called Kd is the concentration at which binding is half-saturated. A higher Kd goes with weaker binding. What is called pKa is the pH at which an ionisable group is half protonated.

Chain of yeast iso-1 cytochrome c WT* (pseudo-wild-type), ferric (Saccharomyces cerevisiae, UniProt P00044, C108S/K78A) (P00044 2-109 K78A/C108S): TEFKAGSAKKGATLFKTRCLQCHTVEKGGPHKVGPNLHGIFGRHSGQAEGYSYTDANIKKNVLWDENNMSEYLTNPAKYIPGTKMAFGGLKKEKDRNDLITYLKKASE
Chain of yeast iso-1 cytochrome c WT* (pseudo-wild-type), ferric (Saccharomyces cerevisiae, UniProt P00044, C108S/K78A/K79A/K85G/M86K) (P00044 2-109 K78A/K79A/K85G/M86K/C108S): as the sequence (P00044 2-109 K78A/C108S) above, with K78A, K84G, M85K counted along it

For the compound `c1c[nH]cn1` [imidazole], the Kd in data set [1] is 2.78 mM; in data set [2] it was 2.33 mM.

As to “iso-1 cytochrome c, M80K# (K73A/K79G/M80K in WT* background) (Saccharomyces cerevisiae; K72A;K73A;K79G;M80K;C102S)”, the pKa with Lys80 is recorded as 4.9 ± 0.2.

Values taken from paper PMC6107088 (Inorganic chemistry, 2018).
